The target of one test is NC(11-55) (Human immunodeficiency virus type 1, UniProt P12493). Put plainly: NC inhibition assay (NC-induced cTAR DNA destabilization, fluorescence). The note with it: for inhibition at 100 µM: single point screening, positive = >25% inhibition at 100µM. The format is biochemical, HIV-1. Summed up:
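Doubly labelled cTAR (0.1 µM, Alexa488/Dabcyl) pre-complexed with 1 µM Zn-loaded NC(11-55) for 15 min, then compound added for a further 15 min; run at 20 °C in Tris-HCl pH 7.5, 30 mM NaCl, 0.2 mM MgCl2. Fluorescence read at ex 480/em 520 nm. IC50 taken from dose-response fit of % inhibition of NC-induced fluorescence increase.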

Test [1] addresses T1, full length (1-55) HIV-1 NCp7 (Human immunodeficiency virus type 1 group M subtype B, UniProt P12493).
T1 construct: recombinant full length (1-55) HIV-1 NCp7 proteins; made in house
Kind of test: Electromobility Shift Assay (EMSA), competition for ssDNA binding. The note with it: NCp7 300 nM, M13mp18 ssDNA; positive = >25% inhibition at 100µM. Put shortly:
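Recombinant NL4-3 NCp7 (300 nM in the pre-mix) was combined with compound in 20 mM Tris-HCl pH 7.4, 2 mM MgCl2, 100 mM NaCl, 1 mM DTT, then M13mp18 ssDNA was added for 25 min at 37 °C. Complexes were run on 1% agarose/0.5x TBE and stained with SybrGold. IC50 is the concentration at which bound ssDNA migrated 50% of the bound–unbound distance (triplicate).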
In general terms: Mobility shift assays separate free from complexed probe on a gel.

For test [2], the system named is HIV-1 reference strain NL4-3. Kind of test: MonoCycle assay (TZM-bl cells). The format is cell-based. The note with it: Human immunodeficiency virus 1, NL43, TZM-bl, 48 h, read-out: Mono Cycle IC50 nM. Put shortly: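 TZM-bl cells (20,000/well) were infected with NL4-3 in the presence of five-fold serial inhibitor dilutions. After 48 h, cells were lysed and luciferase luminescence (RLU) was counted. IC50 was derived from the RLU data.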

This note sets out measurements from EP3290412A1, “HIV-1 NUCLEOCAPSID INHIBITORS” (Università degli Studi di Siena, priority 2016, dated 2018).

pIC50: −log10 of the molar value. Where two headings read alike, the source gives them in different places. A value given as a limit tells only on which side of the number the result lay.

As to `CN1CCCC(CNC(=O)c2nc(-c3ccccn3)nc(O)c2O)C1` (stereo not drawn) [Compound 7, 5,6-dihydroxy-N-((1-methylpiperidin-3 - yl)methyl)-2-(pyridin-2-yl)pyrimidine-4-carboxamide], on NC(11-55), the pIC50 (usually the IC50 on a negative log10 scale, so that one unit is a factor of ten) was 3.47 and the inhibition (as a rule, the change of the read-out against control, counted positive when it falls) at 100 µM is more than 25%. In test [1], the EMSA screening results is reported as “Positive (A compound showing >25% inhibition when tested at 100µM concentration is considered as "positive")”. For the same compound, the IC50 (commonly the concentration that inhibits the measured activity by half) in test [2] was more than 50000 nM.
As to `C[C@@H](NC(=O)c1nc(-c2cc(CCN(C)C)ccn2)nc(O)c1O)C1CCCCC1` [Compound 92, (R)-N-(1-cyclohexylethyl)-2-(4-(2-(dimethylamino)ethyl)pyridin-2-yl)-5,6-dihydroxypyrimidine-4-carboxamide], at NC(11-55), the negative-log IC50 (pIC50) was 5.00 and the inhibition at 100 µM is more than 25%. Also, the EMSA screening results in test [1] is given as “Negative”. In test [2], the IC50 was found to be 6120 nM.
`CC(NC(=O)c1nc(-c2ccccn2)nc(O)c1O)C1CCCC1` (stereo not drawn) [Compound 65, N-(1-cyclopentylethyl)-5,6-dihydroxy-2-(pyridin-2-yl)pyrimidine-4-carboxamide]: on NC(11-55), the pIC50 is 4.33 and the inhibition at 100 µM was more than 25%. For the same compound, in test [1], the EMSA screening results is recorded as “Positive (A compound showing >25% inhibition when tested at 100µM concentration is considered as "positive")”. The 50% inhibitory concentration (IC50) in test [2] was more than 50000 nM.
On to `CC(C)(CNC(=O)c1nc(-c2ccccn2)nc(O)c1O)C1CCCC1` [Compound 63, N-(2-cyclopentyl-2-methylpropyl)-5,6-dihydroxy-2-(pyridin-2-yl)pyrimidine-4-carboxamide], for which, at NC(11-55), the pIC50 was 5.15 and the inhibition at 100 µM is more than 25%. In addition, in test [1], the EMSA screening results is listed as “Positive (A compound showing >25% inhibition when tested at 100µM concentration is considered as "positive")”. Besides, in test [2], the IC50 was 11800 nM.
On NC(11-55), `C[C@@H](NC(=O)c1nc(-c2cc3ccccc3cn2)nc(O)c1O)C1CCCCC1` [Compound 25, (R)-N-(1-cyclohexylethyl)-5,6-dihydroxy-2-(isoquinolin-3-yl)pyrimidine-4-carboxamide] gave a pIC50 of 5.52 and an inhibition at 100 µM of more than 25%. Besides, the EMSA screening results in test [1] is recorded as “Positive (A compound showing >25% inhibition when tested at 100µM concentration is considered as "positive")”. Further, in test [2], the IC50 came to 64000 nM.
On NC(11-55), `O=C(NCCC1CCCCC1)c1nc(-c2ccccn2)nc(O)c1O` [Compound 6, N-(2-cyclohexylethyl)-5,6-dihydroxy-2-(pyridin-2-yl)pyrimidine-4-carboxamide] showed a pIC50 of 4.43 and an inhibition at 100 µM of more than 25%. Further, the EMSA screening results in test [1] was “Positive (A compound showing >25% inhibition when tested at 100µM concentration is considered as "positive")”. In addition, the IC50 in test [2] was determined as 4300 nM.
On the same counts, the results for `C[C@H](NC(=O)c1nc(-c2nccc3ccccc23)nc(O)c1O)C1CCCCC1` [Compound 80, (S)-N-(1-cyclohexylethyl)-5,6-dihydroxy-2-(isoquinolin-1-yl)pyrimidine-4-carboxamide] are 4.96, more than 25%, “Positive (A compound showing >25% inhibition when tested at 100µM concentration is considered as "positive")” and 2850 nM.
For the compound `C[C@@H](NC(=O)c1nc(-c2ccc(CO)cn2)nc(O)c1O)C1CCCCC1` [Compound 55, (R)-N-(1-cyclohexylethyl)-5,6-dihydroxy-2-(5-(hydroxymethyl)pyridin-2-yl)pyrimidine-4-carboxamide], the pIC50 on NC(11-55) (cTAR DNA 0.1 µM, 1 µM NC(11-55), 20 °C, pH 7.5, read-out: NC inhibition IC50) was 4.40. Besides, the inhibition at 100 µM against NC(11-55) is more than 25%. Moreover, the EMSA screening results in test [1] is given as “Positive (A compound showing >25% inhibition when tested at 100µM concentration is considered as "positive")”. In addition, the IC50 in test [2] was determined as 9050 nM.
On NC(11-55), `COc1ccc(-c2nc(O)c(O)c(C(=O)N[C@H](C)C3CCCCC3)n2)nc1` [Compound 32, (R)-N-(1-cyclohexylethyl)-5,6-dihydroxy-2-(5-methoxypyridin-2-yl)pyrimidine-4-carboxamide] gave a pIC50 of 4.35 and an inhibition at 100 µM of more than 25%. Further, the EMSA screening results in test [1] is “Positive (A compound showing >25% inhibition when tested at 100µM concentration is considered as "positive")”. Further, in test [2], the IC50 came to 8260 nM.
On to `CC(=O)Nc1ccc(-c2nc(O)c(O)c(C(=O)N[C@H](C)C3CCCCC3)n2)nc1` [Compound 62, (R)-2-(5-acetamidopyridin-2-yl)-N-(1-cyclohexylethyl)-5,6-dihydroxypyrimidine-4-carboxamide], for which, on NC(11-55), the pIC50 was 4.81 and the inhibition at 100 µM is more than 25%. Moreover, the EMSA screening results in test [1] is listed as “Positive (A compound showing >25% inhibition when tested at 100µM concentration is considered as "positive")”. Further, the IC50 in test [2] was more than 50000 nM.
Turning to `C[C@H](NC(=O)c1nc(-c2ccc(N)cn2)nc(O)c1O)C1CCCCC1` [Compound 81, (S)-2-(5-aminopyridin-2-yl)-N-(1-cyclohexylethyl)-5,6-dihydroxypyrimidine-4-carboxamide], on NC(11-55), the pIC50 is 4.66 and the inhibition at 100 µM is more than 25%. For the same compound, the EMSA screening results in test [1] was “Positive (A compound showing >25% inhibition when tested at 100µM concentration is considered as "positive")”. Also, in test [2], the IC50 amounted to 2290 nM.
On the same counts, the results for `C[C@@H](NC(=O)c1nc(-c2ccc(N)cn2)nc(O)c1O)C1CCCCC1` [Compound 20, (R)-2-(5-aminopyridin-2-yl)-N-(1-cyclohexylethyl)-5,6-dihydroxypyrimidine-4-carboxamide] are 5.52, more than 25%, “Positive (A compound showing >25% inhibition when tested at 100µM concentration is considered as "positive")” and 2110 nM.
At NC(11-55), `C[C@@H](NC(=O)c1nc(-c2cc(Cl)ccn2)nc(O)c1O)C1CCCCC1` [Compound 26, (R)-2-(4-chloropyridin-2-yl)-N-(1-cyclohexylethyl)-5,6-dihydroxypyrimidine-4-carboxamide] had a pIC50 of 5.82 and an inhibition at 100 µM of more than 25%. For the same compound, the EMSA screening results in test [1] is “Positive (A compound showing >25% inhibition when tested at 100µM concentration is considered as "positive")”. Besides, the IC50 in test [2] stood at 17600 nM.
At NC(11-55), `C[C@@H](NC(=O)c1nc(-c2cccc(N)n2)nc(O)c1O)C1CCCCC1` [Compound 45, (R)-2-(6-aminopyridin-2-yl)-N-(1-cyclohexylethyl)-5,6-dihydroxypyrimidine-4-carboxamide] gave a pIC50 of 4.52 and an inhibition at 100 µM of more than 25%. Also, in test [1], the EMSA screening results was “Positive (A compound showing >25% inhibition when tested at 100µM concentration is considered as "positive")”. Besides, the IC50 in test [2] is more than 50000 nM.
For `C[C@@H](NC(=O)c1nc(-c2ncccc2Cl)nc(O)c1O)C1CCCCC1` [Compound 33, (R)-2-(3-chloropyridin-2-yl)-N-(1-cyclohexylethyl)-5,6-dihydroxypyrimidine-4-carboxamide], at NC(11-55), the pIC50 is 4.74 and the inhibition at 100 µM is more than 25%. For the same compound, in test [1], the EMSA screening results is recorded as “Positive (A compound showing >25% inhibition when tested at 100µM concentration is considered as "positive")”. Further, the IC50 in test [2] was more than 50000 nM.
On the same counts, the results for `O=C(NCCCC1CCCCC1)c1nc(-c2ccccn2)nc(O)c1O` [Compound 8, N-(3-cyclohexylpropyl)-5,6-dihydroxy-2-(pyridin-2-yl)pyrimidine-4-carboxamide] are 4.56, more than 25%, “Positive (A compound showing >25% inhibition when tested at 100µM concentration is considered as "positive")” and 4540 nM.
On the same counts, the results for `C[C@H](NC(=O)c1nc(-c2ccccn2)nc(O)c1O)C1CCCCC1` [Compound 38, (S)-N-(1-cyclohexylethyl)-5,6-dihydroxy-2-(pyridin-2-yl)pyrimidine-4-carboxamide] are 4.33, more than 25%, “Positive (A compound showing >25% inhibition when tested at 100µM concentration is considered as "positive")” and 11200 nM.
For the compound `CCNCc1ccc(-c2nc(O)c(O)c(C(=O)N[C@H](C)C3CCCCC3)n2)nc1` [Compound 60, (R)-N-(1-cyclohexylethyl)-2-(5-((ethylamino)methyl)pyridin-2-yl)-5,6-dihydroxypyrimidine-4-carboxamide], on NC(11-55), the pIC50 was 5.46 and the inhibition at 100 µM is more than 25%. For the same compound, the EMSA screening results in test [1] is on record as “Negative”. Moreover, the IC50 in test [2] was more than 50000 nM.
